Our source for the TGI and GI50 values is PubChem BioAssay (NCI).

Some test systems named below: 786-0 renal; HL-60(TB) leukemia; M19-MEL melanoma; MALME-3M melanoma; NCI-H226 lung; NCI-H460 lung; SN12C renal; SR leukemia; U251 CNS; OVCAR-3 ovarian.
Common to all, as to test: NCI tumour cell line growth inhibition, 48 h

Structures are written as SMILES.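 Briefly, cells in 96-well plates were exposed to five compound concentrations for 48 h, and endpoints were estimated by linear interpolation. Here, GI50 denotes the concentration required for 50% inhibition of growth. Definition used: TGI = concentration required for complete inhibition of growth.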

Take `Nc1cccc(-c2cc(=O)c3cc4c(cc3[nH]2)OCO4)c1`: the TGI with 786-0 renal is > 100 µM; in the assay with HL-60(TB) leukemia, > 100 µM; in the assay on M19-MEL melanoma it was > 100 µM; with MALME-3M melanoma, > 100 µM; in the assay on NCI-H226 lung, > 30.4 µM; in the assay on NCI-H460 lung, > 100 µM. Further, the TGI is > 100 µM with SN12C renal, > 100 µM with SR leukemia and 24.9 µM in the assay on U251 CNS.

`[CH3][Sn]([CH3])([CH3])[S]C(=S)N1CCOCC1`: the GI50 is 0.217 µM in the assay on HL-60(TB) leukemia; 0.73 µM with M19-MEL melanoma; 3.49 µM in the assay with MALME-3M melanoma; 2.72 µM with NCI-H226 lung; 1.05 µM with NCI-H460 lung; 0.331 µM in the assay on OVCAR-3 ovarian. The GI50 with SN12C renal is 7.55 µM; with U251 CNS, 2.82 µM. Besides, the TGI with HL-60(TB) leukemia came out at 1.3 µM; in the assay with M19-MEL melanoma, 31.7 µM; with MALME-3M melanoma it was 14.8 µM; with NCI-H226 lung it was 17 µM; in the assay on NCI-H460 lung it was 4.38 µM; in the assay on OVCAR-3 ovarian, 1.32 µM. Moreover, the TGI was > 100 µM in the assay with SN12C renal and 11.4 µM in the assay on U251 CNS.

For the molecule `Cc1nc2ccc(NCCN(C)C)c3c(=O)c4ccccc4n1c23`, the TGI in the assay with 786-0 renal was 15.7 µM; in the assay on HL-60(TB) leukemia it was > 47.5 µM; in the assay with M19-MEL melanoma, 19.5 µM; in the assay on MALME-3M melanoma, 18.5 µM; in the assay on NCI-H226 lung, 8.69 µM; with NCI-H460 lung, 10.8 µM. The TGI came to 35.6 µM in the assay on OVCAR-3 ovarian, 40.1 µM in the assay with SN12C renal, 10.6 µM in the assay on SR leukemia and 16.2 µM with U251 CNS.

Regarding `C/C(=C\C(=O)Nc1ccc2n[nH]nc2c1)Nc1ccc2n[nH]nc2c1`, the TGI in the assay on 786-0 renal, in the assay with HL-60(TB) leukemia, in the assay on M19-MEL melanoma, with MALME-3M melanoma, in the assay with NCI-H226 lung and with NCI-H460 lung was > 100 µM throughout. In addition, the TGI in the assay with OVCAR-3 ovarian, with SN12C renal, in the assay on SR leukemia and in the assay with U251 CNS was > 100 µM each time.

Turning to `Nc1nc(SCc2ccccc2Cl)c2ncn(C3OC(CO)C(O)C3O)c2n1` (centres undefined), the TGI with 786-0 renal, in the assay with HL-60(TB) leukemia, in the assay on M19-MEL melanoma, in the assay with MALME-3M melanoma, in the assay with NCI-H460 lung and in the assay with OVCAR-3 ovarian was > 100 µM in each case. The TGI in the assay with SN12C renal, in the assay on SR leukemia and in the assay with U251 CNS was > 100 µM throughout.
